According to a compilation of properties of binary mixtures (doi:10.1016/j.molliq.2010.03.018):

Test: xn = mol fraction of the nth substance listed
Settings: 101 kPa

CCOCC(C)O (stereo not drawn) + CCCC[n+]1ccn(C)c1.F[P-](F)(F)(F)(F)F
speed of sound [m/s]
Settings | x1 = 0.0532 | x1 = 0.172 | x1 = 0.255 | x1 = 0.3298 | x1 = 0.5031 | x1 = 0.6555 | x1 = 0.8423 | x1 = 0.9 | x1 = 0.9474
288.15 K | 1462 | 1449.6 | 1437.8 | – | 1390.7 | – | – | – | –
298.15 K | 1437 | 1424.7 | 1412.6 | 1399.7 | 1363.1 | 1325.5 | – | 1260.4 | 1247.7
308.15 K | 1414.1 | 1400.1 | – | 1374.8 | 1336.2 | 1296 | 1242.1 | 1225.4 | –

COCCOCCO + CCCC[n+]1ccn(C)c1.F[P-](F)(F)(F)(F)F
speed of sound [m/s]
Settings | x1 = 0.1008 | x1 = 0.2217 | x1 = 0.3398 | x1 = 0.4582 | x1 = 0.519 | x1 = 0.6876 | x1 = 0.8005 | x1 = 0.8758 | x1 = 0.9136
288.15 K | – | 1469 | 1473 | 1478.1 | 1480.6 | 1484.3 | – | – | 1474.1
298.15 K | 1443.7 | – | 1448 | 1452.2 | – | 1455.5 | 1451.5 | 1445.7 | 1441.7
308.15 K | 1420.3 | 1420.8 | 1423.5 | 1426.6 | 1427.8 | – | – | 1414.2 | 1409.4

COCC(C)O (stereo not drawn) + CCCC[n+]1ccn(C)c1.F[P-](F)(F)(F)(F)F
speed of sound [m/s]
Settings | x1 = 0.0426 | x1 = 0.126 | x1 = 0.2396 | x1 = 0.4116 | x1 = 0.5071 | x1 = 0.6847 | x1 = 0.8536 | x1 = 0.9447
288.15 K | 1464.5 | 1458.3 | 1449.3 | – | 1420.4 | 1390.4 | – | 1322.3
298.15 K | 1439.7 | 1433.7 | 1424.6 | – | 1393.6 | 1360.9 | 1316.9 | 1286.9
308.15 K | 1416.2 | – | 1400.6 | 1381.5 | 1367.3 | 1331.8 | – | 1251.5
